# Reference: patent US9406887B2, “Solution, organic semiconductor material, organic semiconductor film, electronic device and electronic equipment” (RICOH COMPANY, LTD., priority 2013, dated 2016)
# How the values were obtained:
# [1] = Solubility of the compound in an organic solvent (saturated solution at 25° C. after reflux); type: physicochemical; conditions: cooled to 25° C. after reflux; for solubility in CHCl3: chloroform
# Experimental: After the compound was added to […] of an organic solvent such as toluene, THF and chloroform until insoluble residue remained, the mixture was stirred for 10 min while the organic solvent was refluxed with heat. Next, after the mixture was cooled to have a temperature of 25° C., it was stirred for 1 hr. Further, after quietly put for 16 hrs, the top clear layer of the mixture was filtered through a PTFE filter having a hole diameter of 0.2 μm to prepare a saturated solution. Next, the solution was dried under reduced pressure and the solubility of the compound in an organic solvent was measured. The evaluation standard of the solubility of the compound in an organic solvent is as follows.
# [2] = Weight variation (TG) on heating, thermal analyzer EXSTRA6200; type: physicochemical; conditions: heated to 250° C. at 20° C./min, nitrogen atmosphere
# Experimental: After 50 mg (0.10 mmol) of the compound having the formula (1-1) were placed in an aluminum pan, they were heated to have a temperature of 250° C. at 20° C./min and weight variation (TG) thereof was measured using a thermal analyzer EXSTRA6200 from Seiko Instruments, Inc. in a nitrogen atmosphere. Thus, 29 mg (yield rate quant.) of a dark purple solid compound having the formula (2-1) was obtained.
Compound,solubility in THF [1],solubility in CHCl3 [1],solubility in Toluene [1],weight reduction (TG) [2] [%]
O=C1NC(c2cccs2)=C2C(=O)NC(c3cccs3)=C12 [formula (2-1)],Poor (less than 0.005% by weight),Poor (less than 0.005% by weight),Poor (less than 0.005% by weight),
CC(C)(C)OC(=O)N1C(=O)C2=C(c3cccs3)N(C(=O)OC(C)(C)C)C(=O)C2=C1c1cccs1 [formula (1-1)],Excellent (not less than 0.5% by weight),Excellent (not less than 0.5% by weight),Excellent (not less than 0.5% by weight),34.6
CCCCCCc1csc(-c2ccc(C3=C4C(=O)N(C(=O)OC(C)(C)C)C(c5ccc(-c6cc(CCCCCC)cs6)s5)=C4C(=O)N3C(=O)OC(C)(C)C)s2)c1 [formula (1-17)],Excellent (not less than 0.5% by weight),Excellent (not less than 0.5% by weight),Excellent (not less than 0.5% by weight),23.1
CCCCCCCCCCCCOc1cc(-c2ccc(-c3ccc(-c4ccc(C5=C6C(=O)N(C(=O)OC(C)(C)C)C(c7ccc(-c8ccc(-c9ccc(-c%10cc(OCCCCCCCCCCCC)c(OCCCCCCCCCCCC)c(OCCCCCCCCCCCC)c%10)s9)s8)s7)=C6C(=O)N5C(=O)OC(C)(C)C)s4)s3)s2)cc(OCCCCCCCCCCCC)c1OCCCCCCCCCCCC [formula (1-27)],Good (not less than 0.1% and less than 0.5% by weight),Excellent (not less than 0.5% by weight),Good (not less than 0.1% and less than 0.5% by weight),9.4
CCCCCCc1ccc(-c2ccc(C3=C4C(=O)N(C(=O)OC(C)(C)C)C(c5ccc(-c6ccc(CCCCCC)s6)s5)=C4C(=O)N3C(=O)OC(C)(C)C)s2)s1 [formula (1-12)],Good (not less than 0.1% and less than 0.5% by weight),Excellent (not less than 0.5% by weight),Excellent (not less than 0.5% by weight),23.8
CC(C)(C)OC(=O)N1C(=O)C2=C(c3ccc(Br)s3)N(C(=O)OC(C)(C)C)C(=O)C2=C1c1ccc(Br)s1 [formula (1-4)],Excellent (not less than 0.5% by weight),Excellent (not less than 0.5% by weight),Good (not less than 0.1% and less than 0.5% by weight),31.6
CCCCCCc1ccc(-c2ccc(-c3ccc(C4=C5C(=O)N(C(=O)OC(C)(C)C)C(c6ccc(-c7ccc(-c8ccc(CCCCCC)s8)s7)s6)=C5C(=O)N4C(=O)OC(C)(C)C)s3)s2)s1 [formula (1-16)],Excellent (not less than 0.5% by weight),Excellent (not less than 0.5% by weight),Excellent (not less than 0.5% by weight),19.8
CCCCCCCCCCCCOc1cc(-c2ccc(-c3ccc(C4=C5C(=O)N(C(=O)OC(C)(C)C)C(c6ccc(-c7ccc(-c8cc(OCCCCCCCCCCCC)c(OCCCCCCCCCCCC)c(OCCCCCCCCCCCC)c8)s7)s6)=C5C(=O)N4C(=O)OC(C)(C)C)s3)s2)cc(OCCCCCCCCCCCC)c1OCCCCCCCCCCCC [formula (1-25)],Excellent (not less than 0.5% by weight),Excellent (not less than 0.5% by weight),Excellent (not less than 0.5% by weight),10.3
CCCCCCOc1ccc(-c2ccc(C3=C4C(=O)N(C(=O)OC(C)(C)C)C(c5ccc(-c6ccc(OCCCCCC)cc6)s5)=C4C(=O)N3C(=O)OC(C)(C)C)s2)cc1 [formula (1-18)],Excellent (not less than 0.5% by weight),Excellent (not less than 0.5% by weight),Excellent (not less than 0.5% by weight),23.1
